Entries after “also recorded” stand apart in the source; their conditions may differ.
test system: alpha or beta in vitro estradiol receptors; test: competitive radio-ligand binding assay, statements that do not separate alpha and beta; set-up: species or system human; settings: alpha or beta receptor not separated; highest concentration 2.5×E-4 M

Compound	estradiol binding / estradiol displacement
C[C@]12CC[C@@H]3c4ccc(O)cc4CC[C@H]3[C@@H]1CC[C@@H]2O [A, 17b-estradiol, reference compound]	binds at a very low concentration
CC(C)(c1ccccc1)c1ccc(O)cc1 [B, p-Cumyl Phenol, reference compound]	displace estradiol at low concentrations
CC(c1ccccc1)(c1ccc(O)cc1)c1ccc(O)cc1 [D, Bisphenol Acetophenone, reference compound]	displace estradiol at low concentrations
Cc1cc(C(C)(C)c2cc(C)c(O)c(C)c2)cc(C)c1O [Example 1, Tetra Methyl BPA]	no estradiol binding
Oc1ccccc1 [Example 2, Phenol]	no estradiol binding
O=C1c2ccccc2C(c2ccc(O)cc2)(c2ccc(O)cc2)N1c1ccccc1 [Example 3, N-Phenyl Phenolphthalein Bisphenol]	no estradiol binding
Oc1cccc(O)c1 [Example 4, Resorcinol]	no estradiol binding
CC(C)(C)c1cc(O)c(C(C)(C)C)cc1O [Example 7, Di t-Butyl Hydroquinone]	no estradiol binding
Cc1cc(O)ccc1O [Example 8, Methyl Hydroquinone]	no displacement; also recorded: no estradiol binding
Oc1ccc(Oc2ccc(O)cc2)cc1 [Example C, Dihydroxy Diphenyl Ether, reference compound]	displace estradiol at low concentrations
Cc1cc(C2(c3ccc(O)c(C)c3)CCCCC2)ccc1O [G, Dimethyl Cyclohexyl Bisphenol, reference compound]	displace estradiol at low concentrations
CC(C)(c1ccc(O)cc1)c1cccc(C(C)(C)c2ccc(O)cc2)c1 [K, Bisphenol M, reference compound]	displace estradiol at low concentrations
O=C1OC(c2ccc(O)cc2)(c2ccc(O)cc2)c2ccccc21 [O, Phenolphthalein, reference compound]	undesirable estradiol displacement at low concentration
Benzophenone bisphenol [reference compound]	undesirable estradiol displacement at low concentration
Biphenol [Example 6]	no estradiol binding
Bis Hydroxy Phenyl Menthane [reference compound]	displace estradiol at low concentrations
Dimethyl Acetophenone Bisphenol [reference compound]	displace estradiol at low concentrations
Diphenolic Acid Methyl Ester [F, reference compound]	displace estradiol at low concentrations
Spiro Biindane Bisphenol [Example 5]	no displacement; also recorded: no estradiol binding

same assay, conditions: alpha or beta receptor not separated; highest concentration 2.5×E-4 M; listed as N-phenyl phenyl phenolphthalein

Compound	estradiol binding / estradiol displacement
O=C1c2ccccc2C(c2ccc(O)cc2)(c2ccc(O)cc2)N1c1ccccc1 [Example 3, N-Phenyl Phenolphthalein Bisphenol]	no displacement

same assay, conditions: alpha or beta receptor not separated; highest concentration 2.5×E-4 M; listed as di-tert butyl hydroquinone

Compound	estradiol binding / estradiol displacement
CC(C)(C)c1cc(O)c(C(C)(C)C)cc1O [Example 7, Di t-Butyl Hydroquinone]	no displacement

same assay, conditions: alpha or beta receptor not separated; highest concentration tested 2.5×E-4 M

Compound	IC50 [µM]
Oc1ccccc1 [Example 2, Phenol]	≥ 250

target: recombinant human estradiol receptors (rhER) beta 1 (β1) (Homo sapiens (Human), UniProt Q92731); test: competitive radio-ligand binding assay, rhER beta 1; settings: at as high as 2.5×E-4 molar concentration
Sequence (Q92731 whole entry): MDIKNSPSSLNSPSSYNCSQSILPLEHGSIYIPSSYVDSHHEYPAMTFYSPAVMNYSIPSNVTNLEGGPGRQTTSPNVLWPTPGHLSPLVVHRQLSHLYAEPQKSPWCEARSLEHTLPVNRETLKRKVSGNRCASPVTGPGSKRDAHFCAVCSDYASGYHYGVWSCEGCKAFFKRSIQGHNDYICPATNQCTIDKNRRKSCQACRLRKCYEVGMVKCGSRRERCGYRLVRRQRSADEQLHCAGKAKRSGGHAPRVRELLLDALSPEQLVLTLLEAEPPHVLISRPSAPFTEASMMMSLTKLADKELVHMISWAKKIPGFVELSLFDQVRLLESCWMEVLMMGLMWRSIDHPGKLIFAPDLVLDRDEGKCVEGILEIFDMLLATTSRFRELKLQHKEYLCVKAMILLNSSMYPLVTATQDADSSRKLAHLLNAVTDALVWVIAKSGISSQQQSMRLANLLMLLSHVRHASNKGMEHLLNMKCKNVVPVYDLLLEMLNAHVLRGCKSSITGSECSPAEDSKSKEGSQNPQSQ

Compound	estradiol displacement at the beta receptor
O=C1c2ccccc2C(c2ccc(O)cc2)(c2ccc(O)cc2)N1c1ccccc1 [Example 3, N-Phenyl Phenolphthalein Bisphenol]	no detectible estradiol displacement
Oc1cccc(O)c1 [Example 4, Resorcinol]	no detectible estradiol displacement
CC(C)(C)c1cc(O)c(C(C)(C)C)cc1O [Example 7, Di t-Butyl Hydroquinone]	no displacement
Cc1cc(O)ccc1O [Example 8, Methyl Hydroquinone]	no alpha or beta estradiol displacement

target: recombinant human estradiol receptors (rhER) alpha (α) (Homo sapiens (Human), UniProt P03372); test: competitive radio-ligand binding assay, rhER alpha; settings: at as high as 2.5×E-4 molar concentration
Sequence (P03372 whole entry): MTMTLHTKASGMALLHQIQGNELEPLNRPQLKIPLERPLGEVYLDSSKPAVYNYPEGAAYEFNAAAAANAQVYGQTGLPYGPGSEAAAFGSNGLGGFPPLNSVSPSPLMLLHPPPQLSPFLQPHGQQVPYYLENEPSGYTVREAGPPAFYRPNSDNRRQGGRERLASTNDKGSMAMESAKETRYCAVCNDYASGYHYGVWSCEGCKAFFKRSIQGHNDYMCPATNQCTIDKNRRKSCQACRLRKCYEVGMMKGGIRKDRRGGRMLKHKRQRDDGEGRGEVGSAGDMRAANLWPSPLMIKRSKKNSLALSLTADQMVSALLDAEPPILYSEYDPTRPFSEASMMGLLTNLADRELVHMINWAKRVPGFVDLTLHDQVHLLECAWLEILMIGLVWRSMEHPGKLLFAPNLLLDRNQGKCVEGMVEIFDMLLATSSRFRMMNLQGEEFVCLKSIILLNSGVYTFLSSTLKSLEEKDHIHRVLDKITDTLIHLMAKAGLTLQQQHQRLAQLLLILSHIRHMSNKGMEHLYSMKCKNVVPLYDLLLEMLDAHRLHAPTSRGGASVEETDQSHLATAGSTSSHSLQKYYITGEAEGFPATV

Compound	estradiol displacement at the alpha receptor
O=C1c2ccccc2C(c2ccc(O)cc2)(c2ccc(O)cc2)N1c1ccccc1 [Example 3, N-Phenyl Phenolphthalein Bisphenol]	no detectible estradiol displacement
Oc1cccc(O)c1 [Example 4, Resorcinol]	no detectible estradiol displacement
CC(C)(C)c1cc(O)c(C(C)(C)C)cc1O [Example 7, Di t-Butyl Hydroquinone]	no displacement
Biphenol [Example 6]	no displacement

Source: patent US9688816B2, “Polyetherimide compositions and methods for the manufacture and use thereof” (SABIC Global Technologies B.V., priority 2011, dated 2017)
